From patent US20250177566A1, “USE OF CHEMICAL EPIGENETIC MODIFIERS TO MODULATE GENE EXPRESSION” (The University of North Carolina at Chapel Hill, priority 2022, published 2025)

Experiments:
TRE3G-GFP reporter gene = TRE3G-GFP reporter gene activation in HCT116, dCas9 + MS2-FKBP*x2 (F36V) system, flow cytometry; assay type: cell-based, human; set-up: fold change, GFP: reference not given here; settings: for fold change, GFP (TRE3G gRNA vs NT gRNA): FIG. 1C, 48 hours; for fold change, GFP (TRE3G gRNA vs NT gRNA) / fold change, GFP: 10 nM; for % repress, GFP (no AP1867 vs AP1867 added): FIG. 1D; for fold change, GFP: FIG. 5A
CXCR4 = CXCR4 mRNA activation in HCT116 stably expressing dCas9 and MS2-FKBP*x2, qRT-PCR; assay type: cell-based, human; settings: FIG. 2C; 5 nM; 48 hrs
Procedure: To further explore the activation potential of the SLF*-CEMa, their ability to target endogenous genes was evaluated (FIGS. 2A and 2B). Lentivirus was used to establish a stable HCT116 cell line expressing dCas9 and MS2-FKBP*x2 constructs, selecting for cells with antibiotic resistance. […] All CEMs were screened for their ability to activate the CXCR4 gene at 5 nM (FIG. 2C). RNA extraction and quantitative RT-PCR (qRT-PCR) were performed after 48 hours of CEM treatment.
To determine the optimal treatment concentration of the SLF*-CEMa molecules in this context, HCT116 cells were treated with 1 nM, 5 nM, 25 nM, and 50 nM of CEM203, CEM207, or CEM87. […] After 48 hours, RNA extraction followed by qRT-PCR was performed to evaluate the change in mRNA expression of CXCR4 (FIG. 2D). […] To directly compare this induced activation to other CRISPR-Cas9-based epigenetic activators, dCas9-VPR and dCas9-p300 constructs were virally infected into HCT116 cells and CXCR4 activation assessed in a similar fashion (FIGS. 2A and 2B).
To determine the time at which SLF*-CEMa most effectively induces gene activation, CXCR4 gene expression changes over time were investigated in dCas9 and MS2-FKBP*x2 stably infected HCT116 cells. Cells were treated with either vehicle, […] (FIG. 3A). RNA extraction and qRT-PCR were performed at 12, 24, 48, 72, and 96 hrs time points (FIG. 3B).
To investigate if endogenous gene activation triggered by the SLF*-CEMa compounds is also reversible, HCT116 cells were treated with CEM203 (50 nM) or CEM207 (25 nM) for 24 hours after transfecting CXCR4 gRNA, and then the CEMs were removed by media exchange at various time points. […] Likewise, it was investigated whether treatment with excess AP1867 could further reverse gene activation, potentially in a more robust fashion than with washout alone if there is any remaining intracellular SLF*-CEMa. To test this, after 24 hours of SLF*-CEMa treatment, a media exchange containing 20 μM AP1867 was performed (FIGS. 3C and 3D).
RNA extraction and qRT-PCR. All RNA extraction experiments were conducted in 12-well plate format. Culturing medium was removed, and cells were washed with 1×PBS, following with 0.05% trypsin to disassociate. After being quenched by medium and centrifuged, cells were washed with 1×PBS, and the RNA extraction was performed by using RNeasy Plus Mini kit (Qiagen, 74134). RT-qPCR was conducted by using RNA-to CT 1-step kit (Thermo Fisher Scientific, 4389986). The primer sets used in quantifying each gene can be found in Table 4.

Compound	fold change, GFP (TRE3G gRNA vs NT gRNA) (TRE3G-GFP reporter gene)	% repress, GFP (no AP1867 vs AP1867 added) (TRE3G-GFP reporter gene; TRE3G gRNA, CEM207 5 nM + AP1867 5 μM)	% repress, GFP (no AP1867 vs AP1867 added) (TRE3G-GFP reporter gene; TRE3G gRNA, CEM207 5 nM + AP1867 10 μM)	% repress, GFP (no AP1867 vs AP1867 added) (TRE3G-GFP reporter gene; TRE3G gRNA, CEM207 5 nM + AP1867 20 μM)	fold change, GFP (no AP1867 vs AP1867 added) (TRE3G-GFP reporter gene; FIG. 5B, TRE3G gRNA, CEM207 5 nM + AP1867 500 nM, 48 hrs)	fold change, GFP (TRE3G-GFP reporter gene; NT gRNA, 48 hrs)	fold change, GFP (TRE3G-GFP reporter gene; TRE3G gRNA, 48 hrs)	fold change, CXCR4 mRNA (Treated vs Non-Treated) (CXCR4)
CC[C@H](C(=O)N1CCCC[C@H]1C(=O)O[C@H](CCc1ccc(OC)c(OC)c1)c1cccc(OCC(=O)O)c1)c1cc(OC)c(OC)c(OC)c1 [AP1867, reference compound]	1.4 fold	45%	84%	91%	No change in GFP expression			
CC[C@H](C(=O)N1CCCC[C@H]1C(=O)O[C@H](CCc1ccc(OC)c(OC)c1)c1cccc(OCC(=O)NCCOCCOCCNC(=O)C[C@@H]2N=C(c3ccc(Cl)cc3)c3cc(OC)ccc3-n3c(C)nnc32)c1)c1cc(OC)c(OC)c(OC)c1 [CEM201, (1R)-1-(3-((14-((4S)-6-(4-Chlorophenyl)-8-methoxy-1-methyl-4H-benzo[f][1,2,4]triazolo[4,3-a][1,4]diazepin-4-yl)-2,13-dioxo-6,9-dioxa-3,12-diazatetradecyl)oxy)phenyl)-3-(3,4-dimethoxyphenyl) propyl (2S)-1-((S)-2-(3,4,5-trimethoxyphenyl)butanoyl) piperidine-2-carboxylate]						0.6 fold	8.2 fold	5.8 fold
CC[C@H](C(=O)N1CCCC[C@H]1C(=O)O[C@H](CCc1ccc(OC)c(OC)c1)c1cccc(OCC(=O)NCCOCCOCCOCCOCCOCCNC(=O)C[C@@H]2N=C(c3ccc(Cl)cc3)c3cc(OC)ccc3-n3c(C)nnc32)c1)c1cc(OC)c(OC)c(OC)c1 [CEM204, (1R)-1-(3-((23-((4S)-6-(4-Chlorophenyl)-8-methoxy-1-methyl-4H-benzo[f][1,2,4]triazolo[4,3-a][1,4]diazepin-4-yl)-2,22-dioxo-6,9,12,15,18-pentaoxa-3,21-diazatricosyl)oxy)phenyl)-3-(3,4-dimethoxyphenyl) propyl (2S)-1-((S)-2-(3,4,5-trimethoxyphenyl)butanoyl) piperidine-2-carboxylate]						0.3 fold	5.7 fold	7.2 fold
CC[C@H](C(=O)N1CCCC[C@H]1C(=O)O[C@H](CCc1ccc(OC)c(OC)c1)c1cccc(OCC(=O)NCCOCCOCCOCCOCCOCCOCCNC(=O)C[C@@H]2N=C(c3ccc(Cl)cc3)c3cc(OC)ccc3-n3c(C)nnc32)c1)c1cc(OC)c(OC)c(OC)c1 [CEM205, (1R)-1-(3-((26-((4S)-6-(4-Chlorophenyl)-8-methoxy-1-methyl-4H-benzo[f][1,2,4]triazolo[4,3-a][1,4]diazepin-4-yl)-2,25-dioxo-6,9,12,15,18,21-hexaoxa-3,24-diazahexacosyl)oxy)phenyl)-3-(3,4-dimethoxyphenyl) propyl (2S)-1-((S)-2-(3,4,5-trimethoxyphenyl)butanoyl) piperidine-2-carboxylate]						0.4 fold	6.9 fold	8.8 fold
CC[C@H](C(=O)N1CCCC[C@H]1C(=O)O[C@H](CCc1ccc(OC)c(OC)c1)c1cccc(OCC(=O)NCCOCCOCCOCCOCCOCCOCCOCCNC(=O)C[C@@H]2N=C(c3ccc(Cl)cc3)c3cc(OC)ccc3-n3c(C)nnc32)c1)c1cc(OC)c(OC)c(OC)c1 [CEM206, (1R)-1-(3-((29-((4S)-6-(4-Chlorophenyl)-8-methoxy-1-methyl-4H-benzo[f][1,2,4]triazolo[4,3-a][1,4]diazepin-4-yl)-2,28-dioxo-6,9,12,15,18,21,24-heptaoxa-3,27-diazanonacosyl)oxy)phenyl)-3-(3,4-dimethoxyphenyl) propyl (2S)-1-((S)-2-(3,4,5-trimethoxyphenyl)butanoyl) piperidine-2-carboxylate]						0.3 fold	8.5 fold	13.9 fold
CC[C@H](C(=O)N1CCCC[C@H]1C(=O)O[C@H](CCc1ccc(OC)c(OC)c1)c1cccc(OCC(=O)NCCOCCOCCOCCNC(=O)C[C@@H]2N=C(c3ccc(Cl)cc3)c3c(sc(C)c3C)-n3c(C)nnc32)c1)c1cc(OC)c(OC)c(OC)c1 [CEM208, (R)-1-(3-((17-((S)-4-(4-Chlorophenyl)-2,3,9-trimethyl-6H-thieno[3,2-f][1,2,4]triazolo[4,3-a][1,4]diazepin-6-yl)-2,16-dioxo-6,9,12-trioxa-3,15-diazaheptadecyl)oxy)phenyl)-3-(3,4-dimethoxyphenyl) propyl(S)-1-((S)-2-(3,4,5-trimethoxyphenyl)butanoyl) piperidine-2-carboxylate]						0.4 fold	8.1 fold	11.5 fold
CC[C@H](C(=O)N1CCCC[C@H]1C(=O)O[C@H](CCc1ccc(OC)c(OC)c1)c1cccc(OCC(=O)NCCOCCOCCOCCOCCNC(=O)C[C@@H]2N=C(c3ccc(Cl)cc3)c3c(sc(C)c3C)-n3c(C)nnc32)c1)c1cc(OC)c(OC)c(OC)c1 [CEM209, (R)-1-(3-((20-((S)-4-(4-Chlorophenyl)-2,3,9-trimethyl-6H-thieno[3,2-f][1,2,4]triazolo[4,3-a][1,4]diazepin-6-yl)-2,19-dioxo-6,9,12,15-tetraoxa-3,18-diazaicosyl)oxy)phenyl)-3-(3,4-dimethoxyphenyl) propyl(S)-1-((S)-2-(3,4,5-trimethoxyphenyl)butanoyl) piperidine-2-carboxylate]						0.5 fold	4.3 fold	11.1 fold
CC[C@H](C(=O)N1CCCC[C@H]1C(=O)O[C@H](CCc1ccc(OC)c(OC)c1)c1cccc(OCC(=O)NCCOCCOCCOCCOCCOCCNC(=O)C[C@@H]2N=C(c3ccc(Cl)cc3)c3c(sc(C)c3C)-n3c(C)nnc32)c1)c1cc(OC)c(OC)c(OC)c1 [CEM210, (R)-1-(3-((23-((S)-4-(4-Chlorophenyl)-2,3,9-trimethyl-6H-thieno[3,2-f][1,2,4]triazolo[4,3-a][1,4]diazepin-6-yl)-2,22-dioxo-6,9,12,15,18-pentaoxa-3,21-diazatricosyl)oxy)phenyl)-3-(3,4-dimethoxyphenyl) propyl(S)-1-((S)-2-(3,4,5-trimethoxyphenyl)butanoyl) piperidine-2-carboxylate]						0.4 fold	8.5 fold	12.0 fold
CCNC(=O)C[C@@H]1N=C(c2ccc(Cl)cc2)c2cc(OC)ccc2-n2c(C)nnc21 [iBET762, reference compound]	2.4 fold							
